{
  "source": "patent US20040229268A1",
  "about": "“Method and kit for identifying antibiotic-resistant microorganisms” (priority 2003, published 2004)",
  "test_system": "mecA gene; Staphylococcus ribosomal nucleic acids",
  "experiment": "HPA after thermal lysis, base hydrolysis and neutralization (Examples 5-7)",
  "format": "binding, S. aureus",
  "experimental": "The cultured S. aureus specimens were lysed by suspending 1 μl loops of bacteria in 150 μl of lysis buffer and then incubating at 105° C. for 15 minutes. Next, 100 μl of 2 N LiOH base solution was added and RNA was hydrolyzed by incubating the mixtures at 60° C. for 15 minutes. Hydrolyzed samples were neutralized by the addition of 100 μl of a neutralizing reagent that included 2 N HCl and 100 mM succinate buffer (pH 5.5 prior to acidification with HCl). Specifically hybridized probe was detected by standard HPA, essentially as described in Example 1.\nSpecimens (1 μl loops of bacteria) were treated and tested essentially as described in Example 5 with the following differences: incubation for lysis was for 15 minutes and incubation for hybridization was for 45 minutes for samples shown in Tables 7-8, while incubation for lysis was for 10 minutes and incubation for hybridization was for 20 minutes for samples shown in Table 9. All of the base-treated solutions were neutralized by the addition of 250 μl of 0.8 N HCl containing 100 mM succinate.\n2′-methoxy analogs of the AE-labeled DNA probes were prepared by standard phosphoramidite synthesis using 2′ methoxy phosphoramidite analogs. Additional linker positions, which are indicated by parentheses in Table 11, for probe 2 were also prepared for testing. Deoxy probes and 2′-methoxy probe analogs were tested essentially as described in Example 5, except as noted below. Probes synthesized using 2′-methoxy nucleotide analogs are particularly identified by the “MeO” designations. Brief summaries of the procedures used to obtain the results are appended to the tables.",
  "key": {"[1]": {"conditions": "Table 7, lysis 15 minutes, hybridization 45 minutes"}, "[2]": {"conditions": "Table 8, lysis 15 minutes, hybridization 45 minutes"}, "[3]": {"conditions": "Table 9, lysis 10 minutes, hybridization 20 minutes"}, "[4]": {"conditions": "Table 10, neutralize 100 μl 2 N HCl containing 200 mM succinate, hybridize 45 minutes at 60° C."}},
  "data": [
    {"sequence": "GGTATGTGGAAGTTAGATTGGGATCATAGCG (AE label, linker between 13 and 14, chemistry not fully specified; listed as Staphylococcus aureus) [Probe 1]", "values": [
      {"measurement": "RLU", "setting": "Table 6, GP18(Neg), MSSA ATCC #12600", "value": 821, "unit": "RLU"},
      {"measurement": "RLU", "setting": "Table 6, GP1214(Neg), MSSA ATCC #29247", "value": 848, "unit": "RLU"},
      {"measurement": "RLU", "setting": "Table 6, GP1217(Pos), MRSA ATCC #33591", "value": "53,322 RLU"},
      {"measurement": "RLU", "setting": "Table 6, GP1218(Pos), MRSA ATCC #43866", "value": "36,730 RLU"},
      {"measurement": "GP18(Neg) RLU", "setting": "[1]", "value": 757, "unit": "RLU"},
      {"measurement": "GP1217(Pos) RLU", "setting": "[1]", "value": 25928, "unit": "RLU"},
      {"measurement": "Probe alone Avg RLU", "setting": "[1]", "value": 3668, "unit": "RLU"},
      {"measurement": "GP18(Neg) RLU", "setting": "[2]", "value": 879, "unit": "RLU"},
      {"measurement": "GP1217(Pos) RLU", "setting": "[2]", "value": 11485, "unit": "RLU"},
      {"measurement": "Probe alone Avg RLU", "setting": "[2]", "value": 1123, "unit": "RLU"},
      {"measurement": "GP1217(Pos) RLU", "setting": "[3]", "value": 27256, "unit": "RLU"},
      {"measurement": "Probe alone Avg RLU", "setting": "[3]", "value": 2476, "unit": "RLU"},
      {"measurement": "GP1214(Neg) RLU", "setting": "[4]", "value": 1844, "unit": "RLU"},
      {"measurement": "GP1217(Pos) RLU", "setting": "[4]", "value": 37695, "unit": "RLU"},
      {"measurement": "Probe alone Avg RLU", "setting": "[4]", "value": 2131, "unit": "RLU"}
    ]}
  ]
}
